≈ marks a conversion by molar mass, not a printed value.

Usually MIC stands for the lowest concentration that inhibits growth of the organism. By IC50 is commonly meant the concentration at which inhibition is half-maximal. Read a high IC50 as weaker potency.

The test system of assay [1] is Mycobacterium tuberculosis. As to the kind of experiment: Antimycobacterial activity against Mycobacterium tuberculosis H37Rv. It is filed as functional.
Another assay addresses D(2) dopamine receptor (Rattus norvegicus, UniProt P61169). Nature of the assay: Displacement of [3H]methylspiperone from D2 receptor in rat striatal membranes. It is filed as cell membranes, Striatum, Membrane. For orientation: Displacement assays read how much labelled ligand stays bound in the presence of the test substance.
In assay [2] the target is 5-hydroxytryptamine receptor 2A (Rattus norvegicus, UniProt P14842). Nature of the assay: Displacement of [3H]ketanserin from 5-HT2A receptor in rat frontal cortex membranes. Type of assay: cell membranes, Membrane.
Chain of 5-hydroxytryptamine receptor 2A (P14842 whole entry): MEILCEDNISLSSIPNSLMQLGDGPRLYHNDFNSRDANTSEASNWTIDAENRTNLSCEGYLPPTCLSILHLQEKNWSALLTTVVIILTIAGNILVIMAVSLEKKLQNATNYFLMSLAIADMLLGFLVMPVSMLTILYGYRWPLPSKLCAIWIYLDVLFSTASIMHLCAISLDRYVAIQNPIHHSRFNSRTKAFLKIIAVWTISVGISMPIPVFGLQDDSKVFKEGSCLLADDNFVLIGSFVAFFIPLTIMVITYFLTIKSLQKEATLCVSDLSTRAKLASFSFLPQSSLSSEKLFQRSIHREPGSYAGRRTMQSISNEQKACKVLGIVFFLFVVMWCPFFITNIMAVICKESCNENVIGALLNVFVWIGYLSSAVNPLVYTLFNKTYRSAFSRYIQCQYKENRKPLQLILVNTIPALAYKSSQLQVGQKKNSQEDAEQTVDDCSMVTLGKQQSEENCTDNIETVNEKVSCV
The subject of a further assay is Geotrichum candidum. Nature of the assay: Antimicrobial activity against Geotrichum candidum. It is filed as functional.
The next assay relates to HepG2. Nature of the assay: Growth inhibition of human HepG2 cells after 24 hrs by MTT assay relative to control. It is filed as functional. Background: Tetrazolium dyes change colour on reduction, which living cells bring about.
Assay [3] concerns the target Acetylcholinesterase (Electrophorus electricus, UniProt O42275). As to the kind of experiment: Inhibition of electric eel AChE.
Assay [4] concerns the target Acetylcholinesterase (Homo sapiens, UniProt P22303). As to the kind of experiment: Inhibition of human serum AChE.
Assay [5] has as its target T1, Acetylcholinesterase (Rattus norvegicus, UniProt P37136).
T1 sequence (P37136 whole entry): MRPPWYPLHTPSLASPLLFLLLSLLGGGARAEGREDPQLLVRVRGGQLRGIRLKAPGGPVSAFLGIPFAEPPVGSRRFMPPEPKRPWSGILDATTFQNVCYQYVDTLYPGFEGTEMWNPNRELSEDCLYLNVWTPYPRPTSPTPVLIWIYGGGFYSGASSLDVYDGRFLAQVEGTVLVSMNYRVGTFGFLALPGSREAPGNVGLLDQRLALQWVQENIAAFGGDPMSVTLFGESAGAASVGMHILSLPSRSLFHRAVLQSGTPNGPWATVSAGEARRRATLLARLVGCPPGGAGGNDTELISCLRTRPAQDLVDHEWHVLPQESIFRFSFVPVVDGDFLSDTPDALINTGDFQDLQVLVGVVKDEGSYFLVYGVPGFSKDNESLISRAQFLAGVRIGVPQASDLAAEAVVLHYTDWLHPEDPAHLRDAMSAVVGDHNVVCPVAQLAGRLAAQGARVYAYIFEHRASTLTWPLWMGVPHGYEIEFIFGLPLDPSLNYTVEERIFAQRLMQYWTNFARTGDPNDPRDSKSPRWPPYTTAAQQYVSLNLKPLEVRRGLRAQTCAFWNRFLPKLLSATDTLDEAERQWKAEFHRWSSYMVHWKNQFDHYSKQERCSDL
As to the kind of experiment: Inhibition of rat brain AChE.

Assay [6] is described as follows: Inhibition of urease (unknown origin).

Chain of Acetylcholinesterase (Electrophorus electricus, UniProt O42275) (O42275 whole entry): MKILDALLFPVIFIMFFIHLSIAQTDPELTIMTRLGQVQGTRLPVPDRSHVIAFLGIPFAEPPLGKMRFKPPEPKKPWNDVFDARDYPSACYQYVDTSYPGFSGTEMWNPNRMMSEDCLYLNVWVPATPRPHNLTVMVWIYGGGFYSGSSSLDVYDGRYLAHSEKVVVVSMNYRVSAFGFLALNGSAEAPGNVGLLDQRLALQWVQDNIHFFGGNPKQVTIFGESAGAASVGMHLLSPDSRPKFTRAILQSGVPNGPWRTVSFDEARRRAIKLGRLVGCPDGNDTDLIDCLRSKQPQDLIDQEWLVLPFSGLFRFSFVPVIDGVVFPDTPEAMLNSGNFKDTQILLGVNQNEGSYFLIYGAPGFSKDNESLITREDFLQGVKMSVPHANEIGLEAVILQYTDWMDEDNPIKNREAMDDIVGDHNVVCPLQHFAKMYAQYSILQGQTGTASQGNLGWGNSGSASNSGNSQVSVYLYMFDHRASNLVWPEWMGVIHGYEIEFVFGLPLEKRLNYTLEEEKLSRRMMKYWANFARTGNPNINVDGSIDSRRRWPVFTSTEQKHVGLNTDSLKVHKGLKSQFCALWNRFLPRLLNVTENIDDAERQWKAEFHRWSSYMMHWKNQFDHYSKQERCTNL
Chain of Acetylcholinesterase (Homo sapiens, UniProt P22303) (P22303 whole entry): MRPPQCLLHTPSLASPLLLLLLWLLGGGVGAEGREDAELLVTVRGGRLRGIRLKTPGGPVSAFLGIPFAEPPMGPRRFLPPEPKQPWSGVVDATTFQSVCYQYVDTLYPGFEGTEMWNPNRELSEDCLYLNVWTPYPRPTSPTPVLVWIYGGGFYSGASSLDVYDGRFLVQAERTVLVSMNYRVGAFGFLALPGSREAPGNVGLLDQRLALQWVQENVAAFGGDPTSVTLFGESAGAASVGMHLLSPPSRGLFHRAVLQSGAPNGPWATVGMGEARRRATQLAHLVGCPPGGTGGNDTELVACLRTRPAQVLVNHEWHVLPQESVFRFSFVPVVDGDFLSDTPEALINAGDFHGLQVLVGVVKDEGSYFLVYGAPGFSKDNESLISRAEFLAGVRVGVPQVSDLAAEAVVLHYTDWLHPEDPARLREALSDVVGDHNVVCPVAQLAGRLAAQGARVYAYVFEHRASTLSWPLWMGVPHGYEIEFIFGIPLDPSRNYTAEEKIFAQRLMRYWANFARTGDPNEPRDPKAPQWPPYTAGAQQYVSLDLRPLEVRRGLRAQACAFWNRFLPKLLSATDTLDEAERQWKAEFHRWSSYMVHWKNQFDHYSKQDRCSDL
Chain of D(2) dopamine receptor (P61169 whole entry): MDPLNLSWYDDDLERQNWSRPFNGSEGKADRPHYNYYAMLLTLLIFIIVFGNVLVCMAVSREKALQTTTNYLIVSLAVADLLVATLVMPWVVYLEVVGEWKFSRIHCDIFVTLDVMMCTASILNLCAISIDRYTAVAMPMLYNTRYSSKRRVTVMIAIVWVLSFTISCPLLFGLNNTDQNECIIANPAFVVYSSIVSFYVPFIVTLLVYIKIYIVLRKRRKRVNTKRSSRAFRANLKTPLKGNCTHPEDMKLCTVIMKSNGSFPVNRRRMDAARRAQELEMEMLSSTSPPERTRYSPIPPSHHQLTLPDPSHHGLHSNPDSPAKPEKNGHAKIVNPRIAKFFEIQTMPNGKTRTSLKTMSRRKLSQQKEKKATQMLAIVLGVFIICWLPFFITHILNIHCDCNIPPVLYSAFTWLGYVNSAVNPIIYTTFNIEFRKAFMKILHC

`O=S(=O)(c1ccccc1)N1CCN(c2noc3ccccc23)CC1` came in with a minimal inhibitory concentration (MIC) in assay [1] of 3.25 µg/mL (≈ 9.46 µM). With `Cc1ccc(S(=O)(=O)N2CCN(c3noc4cccc(Cl)c34)CC2)cc1`, 6.25 µg/mL (≈ 15.9 µM) was the least that counted as inhibitory in assay [1] (MIC). Turning to `O=C1c2ccc(OCCCN3CCC(c4noc5cc(F)ccc45)CC3)cc2OCC1CO` (centres undefined), the IC50 on D(2) dopamine receptor came out at 0.017 µM; in assay [2] it was 0.0062 µM. Turning to `O=C(c1ccccc1)N(C(=O)c1ccccc1)c1onc2ccccc12`, the MIC with Geotrichum candidum was found to be 584 µM (≈ 200 µg/mL). `O=C(c1c(F)cccc1F)N1CCC(c2noc3cc(F)ccc23)CC1`: the “growth inhibition (GI)” value in the assay on HepG2 is 42.06%.

For the compound `Fc1ccc2c(C3CCN(CCN4CCCC4)CC3)noc2c1`, the IC50 came out at 2.51 µM at Acetylcholinesterase [3], 3.29 µM against Acetylcholinesterase [4] and 5.3 µM against Acetylcholinesterase [5].

As to `O=C(N1CCCC1)N1CCC(c2noc3cc(F)ccc23)CC1`, the “growth inhibition (GI)” value in the assay with HepG2 came to 39.19%.

On to `CCCN1C(=O)C(C)c2cc(C(=O)CN3CCN(c4noc5cc(Cl)ccc45)CC3)ccc21` (centres undefined), for which the MIC in assay [1] is 3.12 µg/mL (≈ 6.68 µM). For the compound `COc1ccc(NC(=S)NC(Cc2ccccc2)C(=O)N2CCCC2C(=O)N2CCC(c3noc4cc(F)ccc34)CC2)cc1` (centres undefined), the half-maximal inhibitory concentration (IC50) in assay [6] is 4.9 µM. This counts as single-digit micromolar.

Turning to `O=C(c1ccccc1)c1onc2ccccc12`, in the assay with Geotrichum candidum, the MIC was found to be 44.8 µM (≈ 10 µg/mL). Take `Fc1ccc2c(C3CCN(CCN4CCCCC4)CC3)noc2c1`: the values for the IC50 on Acetylcholinesterase [3], against Acetylcholinesterase [4] and against Acetylcholinesterase [5] were 1.5 µM, 2.22 µM and 1.29 µM, respectively. Take `CCCN1C(=O)Cc2cc(C(=O)CN3CCN(c4noc5ccccc45)CC3)ccc21`: the minimum inhibitory concentration (MIC) in assay [1] came to 3.12 µg/mL (≈ 7.46 µM). In the case of `O=C(Nc1ccccc1)c1onc2ccccc12`, the minimum inhibitory concentration (MIC) with Geotrichum candidum was 840 µM (≈ 200 µg/mL). Regarding `O=C(N1CCOCC1)N1CCC(c2noc3cc(F)ccc23)CC1`, the “growth inhibition (GI)” value with HepG2 is listed as 37.75%.
